Values of other authors in publication PMC7765247 (Bioorganic & medicinal chemistry letters, 2020).

Test system: PC-3 cells
Conditions: anoxia (< 10 ppm oxygen in gas phase); ref Patterson el. al.

CS(=O)(=O)OCCN(CCBr)c1c(C(=O)NCCO)cc([N+](=O)[O-])cc1[N+](=O)[O-] [Compound 16, PR-104A]
hypoxia-selectivity ratio in PC-3 cells: approximately 15
